Reference: patent publication US9309231B2, “Bridged ring compounds as hepatitis C virus (HCV) inhibitors and pharmaceutical applications thereof” (SUNSHINE LAKE PHARMA CO., LTD, priority 2012, dated 2016)

Legend:
HCV GT1a replicon cells = experiment: HCV replicon assay, GT1a replicon cells; assay type: cell-based; settings: Hepatitis C virus, 72 hours incubation, luciferase reporter or NEO gene qPCR readout, read-out: EC50 against HCV 1a genotype
Description: (§1) An HCV Replicon assay was utilized in the present disclosure, and was prepared, developed and validated as described in Science, 1999, 285 (5424), 110-3 and J. Virol., 2003, 77 (5), 3007-19.
(§2) HCV GT1a, GT1b and GT2a replicon cells were used to test the currently described compound series as well as wild-type cells HCV 1b and resistant cells Y^93H, L31F, P32L and I302V. GT1a and CT1b are HCV Replicon System which is transfected HCV 1a, 1b genotype respectively.
(§3) 1. Testing EC50 of the Compounds by Luciferase Assay
(§4) The GT1b cells and GT1a cells were seeded into 96-well plates (8,000 cells in 125 μl/well) respectively; each compound was diluted to desired concentration using 5-fold serial dilutions protocol, 10 dose in duplicate, and added to wells with POD™ 810 Plate Assembler. The final concentration of DMSO was 0.5%; the plates were incubated in a CO2 incubator for 72 hours; after that, 40 μl of Luciferase assay substrate (Promega Bright-Glo) was added to each well, and detected by a chemiluminescence detection system (Topcount Microplate Scintillation and Luminescence Counter) 5 minutes later; data analysis.
(§5) 2. Testing EC50 of the Compounds by Detecting Antibiotic G418 Resistance Gene NEO Gene
(§6) The GT1b cells and GT1a cells were seeded into 96-well plates (8,000 cells in 125 μl/well) respectively; each compound was diluted to desired concentration using 5-fold serial dilutions protocol, 10 dose in duplicate, and added to wells with POD™ 810 Plate Assembler., the final concentration of DMSO was 0.5%; the cells were incubated in a CO2 incubator for 72 hours; quantitative PCR. • Sample preparation: the supernatant was removed, 100 μl of FCW buffer solution was added to each well, washed carefully and discarded the solution; 50 μl of lysate FCP was added to each well, the cells was lysed as PCR template and diluted with DEPC water. • Quantitative PCR: preparation of reaction mixture according to PCR system; the reaction mixture was dispensed into a 384-well PCR reaction plate (specially for quantitative); and a standard template which was diluted in proportion was distributed into the plate; and the sample template was distributed into the plate; then the 384-well plate was sealed with closure plate membrane; the […] PCR machine was operated by procedures; data analysis.
(§7) 3. Data Processing: The EC50 Values of Compounds were Analyzed by GraphPad Prism Software.

HCV GT1b replicon cells = experiment: HCV replicon assay, GT1b replicon cells; assay type: cell-based; settings: Hepatitis C virus, 72 hours incubation, luciferase reporter or NEO gene qPCR readout, read-out: EC50 against HCV 1b genotype
Description: as §1, §2, §3, §4, §5, §6, §7

| Compound | EC50 (HCV GT1a replicon cells) [nM] | EC50 (HCV GT1b replicon cells) [nM] |
| --- | --- | --- |
| [2H]C([2H])([2H])[C@]([2H])(NC(=O)OC)C(=O)N1C[C@@H](F)C[C@H]1c1ncc(-c2ccc(-c3ccc(-c4cnc([C@@H]5C[C@H](F)CN5C(=O)[C@@]([2H])(NC(=O)OC)C([2H])([2H])[2H])[nH]4)c4c3C3CCC4C3)cc2)[nH]1 (some centres unmarked) [Example 79] | 0.314 | 0.043 |
| COC(=O)N[C@H](C(=O)N1CCC[C@H]1c1nc2ccc(-c3ccc(-c4ccc(-c5cnc([C@@H]6C7CCC(C7)N6C(=O)[C@@H](NC(=O)OC)C(C)C)[nH]5)cc4)c4c3C3CCC4C3)cc2[nH]1)C(C)C (some centres unmarked) [Example 1] | 0.029 | 0.008 |
| COC(=O)N[C@@H](C)C(=O)N1CCC[C@H]1c1ncc(-c2ccc(-c3ccc(-c4ccc5[nH]c([C@@H]6CCCN6C(=O)[C@H](C)NC(=O)OC)nc5c4)c4c3C3CCC4C3)cc2)[nH]1 (some centres unmarked) [Example 7] | 0.094 | 0.076 |
| COC(=O)N[C@H](C(=O)N1CC(F)(F)C[C@H]1c1ncc(-c2ccc(-c3ccc(-c4cnc([C@@H]5CC(F)(F)CN5C(=O)[C@@H](NC(=O)OC)C(C)C)[nH]4)c4c3C3CCC4C3)cc2)[nH]1)C(C)C (some centres unmarked) [Example 14] | 0.487 | 0.006 |
| COC(=O)N[C@H](C(=O)N1CCC[C@H]1c1ncc(C#Cc2ccc(C#Cc3cnc([C@@H]4CCCN4C(=O)[C@@H](NC(=O)OC)C(C)C)[nH]3)c3c2C2CCC3N2C)[nH]1)C(C)C [Example 24] | 0.453 | 0.096 |
| COC(=O)N[C@H](C(=O)N1CCC[C@H]1C(=O)Nc1ccc(-c2ccc(-c3ccc(-c4cnc([C@@H]5CCCN5C(=O)[C@@H](NC(=O)OC)C(C)C)[nH]4)cc3)c3c2C2CCC3C2)cc1)C(C)C (some centres unmarked) [Example 49] | 0.855 | 0.083 |
| COC(=O)N[C@H](C(=O)N1CCC[C@H]1C(=O)Nc1cccc(-c2ccc(-c3ccc(-c4cnc([C@@H]5CCCN5C(=O)[C@@H](NC(=O)OC)C(C)C)[nH]4)cc3)c3c2C2CCC3C2)c1)C(C)C (some centres unmarked) [Example 16] | 3.5 | 0.009 |
| [2H]C([2H])([2H])C([2H])(C([2H])([2H])[2H])[C@]([2H])(NC(=O)OC)C(=O)N1CCC[C@H]1c1ncc(-c2ccc(-c3nnc(-c4ccc5[nH]c([C@@H]6CCCN6C(=O)[C@@]([2H])(NC(=O)OC)C([2H])(C([2H])([2H])[2H])C([2H])([2H])[2H])nc5c4)c4c3C3CCC4CC3)cc2)[nH]1 [Example 78] | 0.045 | 0.007 |
| COC(=O)N[C@H](C(=O)N1CCC[C@H]1c1ncc(-c2ccc(-c3ccc(-c4ccc5nc([C@@H]6CCCN6C(=O)[C@@H](NC(=O)OC)C(C)C)[nH]c5c4)c4c3C3CCC4N3C)nc2)[nH]1)C(C)C (some centres unmarked) [Example 34] | 0.054 | 0.006 |
| COC(=O)N[C@H](C(=O)N1CC(F)(F)CC1c1ncc(-c2ccc(-c3ccc(-c4cnc([C@@H]5CC(F)(F)CN5C(=O)[C@@H](NC(=O)OC)C(C)C)[nH]4)cc3)c3c2C2CCC3N2C)[nH]1)C(C)C (some centres unmarked) [Example 31] | 0.077 | 0.038 |
| COC(=O)N[C@H](C(=O)N1CCCC1c1ncc(-c2ccc(-c3ccc(-c4cnc([C@@H]5CC6(CN5C(=O)[C@@H](NC(=O)OC)C(C)C)OCCO6)[nH]4)cc3)c3c2C2CCC3CC2)[nH]1)C(C)C (some centres unmarked) [Example 61] | 0.088 | 0.011 |
| COC(=O)N[C@H](C(=O)N1CCCC1c1nc2ccc(-c3ccc(-c4ccc5nc([C@@H]6CCCN6C(=O)[C@@H](NC(=O)OC)C(C)C)[nH]c5c4)c4c3C3CCC4O3)cc2[nH]1)C(C)C (some centres unmarked) [Example 65] | 0.064 | 0.013 |
| COC(=O)N[C@H](C(=O)N1CCC[C@H]1c1ncc(-c2ccc(-c3ccc(-c4cnc([C@@H]5CCCN5C(=O)[C@@H](NC(=O)OC)C(C)C)[nH]4)c4c3C3CCC4N3C)cc2)[nH]1)C(C)C (some centres unmarked) [Example 26] | 0.653 | 0.077 |
| COC(=O)N[C@H](C(=O)N1C2CC2C[C@H]1c1ncc(-c2ccc(-c3ccc(-c4ccc(-c5cnc([C@@H]6NC7CC7N6C(=O)[C@@H](NC(=O)OC)C(C)C)[nH]5)cc4)c4c3C3CCC4C3)cc2)[nH]1)C(C)C (some centres unmarked) [Example 45] | 3.07 | 0.113 |
| COC(=O)N[C@H](C(=O)N1CCC[C@H]1c1ncc(-c2ccc(-c3ccc(-c4ccc5nc([C@@H]6CCCN6C(=O)[C@@H](NC(=O)OC)C(C)C)[nH]c5c4)c4c3C3CCC4CC3)cc2)[nH]1)C(C)C [Example 21] | 0.093 | 0.013 |
| COC(=O)N[C@H](C(=O)N1CCC[C@H]1c1nc2ccc(-c3ccc(-c4ccc(-c5cnc([C@@H]6CC7CC7N6C(=O)[C@@H](NC(=O)OC)C(C)C)[nH]5)cc4)c4c3C3CCC4C3)cc2[nH]1)C(C)C (some centres unmarked) [Example 3] | 0.053 | 0.013 |
